From patent publication US20250302788A1, “COMPOSITION COMPRISING CREATINE FOR USE IN THE TREATMENT OF POST VIRAL FATIGUE SYNDROME” (Alzchem Trostberg GmbH, priority 2022, published 2025)
Read-outs that look alike come from different tables or passages of the source.

How the values were obtained:
[1] = both, human, in vivo
[2] = test system: PCFS patients; assay: Incremental treadmill test until exhaustion, Example 3; assay type: in vivo, human
Protocol: In addition the time to exhaustion of the patients was evaluated by an incremental test until exhaustion on a motorized treadmill.

[3] = test system: PCFS patients; assay type: in vivo, human
[4] = test system: PCFS patients; assay: MFI-20 fatigue test, Example 3; assay type: in vivo, human

O=C[C@H](O)[C@@H](O)[C@H](O)[C@H](O)CO [Glucose, glucose, reference compound]
Total creatine, Left frontal grey matter [1]: 6.8 ± 0.4 mM | Total creatine, Left frontal white matter [1]: 5.8 ± 0.4 mM | Total creatine, Left mesial grey matter [1]: 7.6 ± 0.7 mM | Total creatine, Left paracentral grey matter [1]: 7.0 ± 0.9 mM | Total creatine, Left parietal white matter [1]: 5.4 ± 0.6 mM | Total creatine, Left precentral white matter [1]: 5.6 ± 0.6 mM | Total creatine, Right frontal grey matter [1]: 7.0 ± 0.9 mM | Total creatine, Right frontal white matter [1]: 5.6 ± 0.8 mM | Total creatine, Right mesial grey matter [1]: 7.3 ± 0.6 mM | Total creatine, Right paracentral grey matter [1]: 6.4 ± 0.7 mM | Total creatine, Right parietal white matter [1]: 5.2 ± 0.7 mM | Total creatine, Right precentral white matter [1]: 5.4 ± 0.6 mM | Total creatine, Thalamus [1]: 5.5 ± 0.5 mM | Total creatine, Vastus medialis muscle [1]: 30.1 ± 12.7 mM | Total creatine, Left frontal grey matter ([1]; 8 weeks): 6.3 ± 0.9 mM | Total creatine, Left frontal white matter ([1]; 8 weeks): 5.6 ± 1.0 mM | Total creatine, Left mesial grey matter ([1]; 8 weeks): 7.4 ± 0.6 mM | Total creatine, Left paracentral grey matter ([1]; 8 weeks): 6.9 ± 0.7 mM | Total creatine, Left parietal white matter ([1]; 8 weeks): 5.3 ± 0.5 mM | Total creatine, Left precentral white matter ([1]; 8 weeks): 5.6 ± 0.5 mM | Total creatine, Right frontal grey matter ([1]; 8 weeks): 7.0 ± 0.7 mM | Total creatine, Right frontal white matter ([1]; 8 weeks): 5.6 ± 0.8 mM | Total creatine, Right mesial grey matter ([1]; 8 weeks): 7.0 ± 1.0 mM | Total creatine, Right paracentral grey matter ([1]; 8 weeks): 6.2 ± 1.1 mM | Total creatine, Right parietal white matter ([1]; 8 weeks): 5.2 ± 0.7 mM | Total creatine, Right precentral white matter ([1]; 8 weeks): 5.3 ± 0.7 mM | Total creatine, Thalamus ([1]; 8 weeks): 5.5 ± 0.7 mM | Total creatine, Vastus medialis muscle ([1]; 8 weeks): 28.5 ± 9.2 mM | Time to exhaustion ([2]; 8 weeks): 908 s | Time to exhaustion ([2]; Baseline): 915 s | Change of time to exhaustion ([2]; post-administration (8 weeks) vs baseline): -7 s | Ageusia (VAS scale) ([3]; 8 weeks): 0.6 | Anosmia (VAS scale) ([3]; 8 weeks): 1.0 | Concentrating difficulties (VAS scale) ([3]; 8 weeks): 3.0 | Headache (VAS scale) ([3]; 8 weeks): 2.8 | Malaise (VAS scale) ([3]; 8 weeks): 3.0 | Ageusia (VAS scale) ([3]; Baseline): 2.2 | Anosmia (VAS scale) ([3]; Baseline): 2.6 | Concentrating difficulties (VAS scale) ([3]; Baseline): 4.4 | Headache (VAS scale) ([3]; Baseline): 3.8 | Malaise (VAS scale) ([3]; Baseline): 4.6 | General fatigue (MFI-20 score) ([4]; 8 weeks): 11.6 | Mental fatigue (MFI-20 score) ([4]; 8 weeks): 11.0 | Physical fatigue (MFI-20 score) ([4]; 8 weeks): 12.6 | Reduced activity (MFI-20 score) ([4]; 8 weeks): 12.6 | Reduced motivation (MFI-20 score) ([4]; 8 weeks): 10.8 | General fatigue (MFI-20 score) ([4]; Baseline): 12.0 | Mental fatigue (MFI-20 score) ([4]; Baseline): 11.4 | Physical fatigue (MFI-20 score) ([4]; Baseline): 12.8 | Reduced activity (MFI-20 score) ([4]; Baseline): 12.6 | Reduced motivation (MFI-20 score) ([4]; Baseline): 10.0
